This is an account of results in paper PMC12024912, “Druggability Studies of Benzene Sulfonamide Substituted Diarylamide (E3) as a Novel Diuretic” (Biomedicines, 2025).

Like-named read-outs stand apart in the source and are kept apart here. Where only a bound is given, the exact number is not on record here.

Series [1] is described as follows: Liver homogenate metabolic stability, rat. In kind it is in vitro ADME. The method, then:
Plasma from mice, rats, rabbits, and humans was obtained from blood after centrifugation at 3000 r/min for 10 min. Simulated gastric fluid (SGF, pH = 1, containing pepsin) and simulated intestinal fluid (SIF, pH = 6.8, containing trypsin) were configured previously in the experiments. SD rats and mice were collected, and after removing the mucus layer from the small intestine and colon, 20 times the volume of liquid bacterial culture medium was added. An intestinal microbiota suspension was obtained after anaerobic cultivation on a shaking table at 37 °C for 12 h. In the aforementioned systems, E3 was added at a final concentration of 1 μmol/L at 37 °C for different incubation times (0, 10, 20, 30, 60, 120, and 240 min). In liver metabolic stability assays, E3 was incubated with liver microsomes or liver homogenate from mice or rats for 60 min at 37 °C. The stop solution, 5 ng/mL tolbutamide (internal standard, IS) in acetonitrile, was added to stop the metabolic process. Post-centrifugation (18,000× g, 10 min, 4 °C), supernatants were subjected to liquid chromatography–tandem mass spectrometry (LC–MS/MS). Analyte-to-IS peak area ratios quantified residual percentages via Equation (2):Remaining% = (E3peak area/ISpeak area at different time)/(E3peak area/ISpeak area at 0 min) × 100%.(2)

Series [2] can be described thus: Pharmacokinetic study in rats. Type of series: in vivo, rat. The method, then:
Male SD rats were allowed free access to food in a controlled environment of 22 ± 2 °C, with a humidity level of 55% ± 5%, and maintained under a 12 h light/dark cycle. In the oral administration groups, E3 was delivered in a 0.5% CMC-Na solution at a dosage of 4 mg/kg body weight. Blood samples were collected by the orbital venous plexus and kept on ice at the following time points: 0.083, 0.167, 0.25, 0.5, 1, 2, 4, 6, 8, 12, and 24 h. E3 formulations (DMSO:PEG400:saline = 10:30:60, v/v) were administered via tail vein (1 mg/kg). Serial blood sampling (0.033, 0.083, 0.167, 0.333, 0.5, 1, 2, 4, 8, 12, and 24 h post-dose) yielded plasma via centrifugation (3000 r/min, 10 min, 4 °C), stored at −80 °C until PK analysis using DAS 3.2.8 (noncompartmental analysis model).
The analyte E3 and IS were dissolved in DMSO to generate the stock solutions. The working calibration of E3 was gradient-diluted with MeOH/H2O (1:1, v/v). Three microliters of working solutions were spiked with 27 μL of the blank rat plasma to establish the calibration standards. The final concentrations of the standard samples were 1, 2, 5, 10, 50, 250, 500, and 1000 ng/mL. Quality control samples (3/100/800 ng/mL) were prepared using identical protein precipitation protocols. Briefly, 30 μL calibrators and biological matrices were mixed with 450 μL stop solution, vortexed (5 min), and centrifuged (18,000× g, 10 min, 4 °C). Processed supernatants (2 μL injection volume) were subjected to LC-MS/MS analysis.
The analysis was conducted by an Xevo TQ-S Cronos Triple Quadrupole Mass Spectrometer coupled with an ACQUITY UPLC (Waters Corp, Milford, MA, USA). The chromatographic separation was conducted in an ACQUITY UPLC BEH C18 1.7 µm column (Waters, Milford, MA, USA) at 40 °C with a flow rate of 0.4 mL/min. The mobile phases were 0.1% (v/v) formic acid in water (A) and pure ACN (B). […] An electrospray ionization (ESI) source with multiple–reaction monitoring (MRM) in positive–ion mode was employed to quantify the analytes with the transitions of m/z 385.11 > 244.19 and m/z 271.136 > 91.01 for E3 and IS, respectively. The optimized cone voltage is 10 V and 24 V for E3 and IS, respectively. The collision energy is 12 V and 32 V for E3 and IS, respectively. MassLynx v4.2 (Waters Corp, Milford, MA, USA) was used for data acquisition and analysis.

Series [3] addresses T1, UT-B (Rattus norvegicus, UniProt P97689).
T1 construct: endogenous in cells; host or cells: erythrocytes from male SD rats
T1 sequence (P97689 1-384): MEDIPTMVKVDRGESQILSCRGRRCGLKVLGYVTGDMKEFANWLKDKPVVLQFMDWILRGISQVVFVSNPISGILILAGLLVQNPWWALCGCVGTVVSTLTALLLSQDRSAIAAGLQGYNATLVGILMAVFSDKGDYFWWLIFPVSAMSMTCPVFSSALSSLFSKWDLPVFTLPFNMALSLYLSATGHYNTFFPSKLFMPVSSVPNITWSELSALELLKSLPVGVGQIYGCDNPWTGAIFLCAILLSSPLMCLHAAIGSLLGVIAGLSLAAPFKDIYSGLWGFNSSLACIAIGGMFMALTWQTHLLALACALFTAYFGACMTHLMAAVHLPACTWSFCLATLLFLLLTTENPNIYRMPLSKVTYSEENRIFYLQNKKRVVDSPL
The series is described as follows: Stopped-flow measurement of erythrocyte urea permeability. Type of series: cell-based. How it is done: Erythrocyte urea permeabilities were assessed via stopped-flow light scattering (SX20, Applied Photophysics, Leatherhead, UK) following established protocols. Erythrocyte was acquired from rat blood and suspended in isotonic PBS (hematocrit 0.5%). Then, the erythrocyte was incubated with test compounds for 5 min and quickly mixed with 500 mmol/L urea dissolved in PBS. Following an initial osmotic shrinking phase, the kinetics of cell volume increase due to urea influx were measured by monitoring the time course of 90° scattered light intensity at 530 nm. […] Keep samples and PBS at 4 °C to reduce the influence of free diffusion. To assay reversibility, compounds were added to erythrocytes for 5 min and then washed with PBS 3 times by 2000 r/min centrifugation before stopped-flow measurements. To determine inhibition on urea efflux, erythrocytes were incubated with 500 mmol/L urea in PBS for 2 h, then mixed with PBS without urea.

The mark [4] stands for this setting: male, SD, rat, plasma, iv, 1 mg/kg, single i.v. 1 mg/kg, n = 5.
[5] abbreviates: male, SD, rat, plasma, iv, single i.v. 1 mg/kg, n = 5.
[6] abbreviates: male, SD, rat, plasma, po, 4 mg/kg, single p.o. 4 mg/kg, n = 5.
Where [7] appears, read: male, SD, rat, plasma, po, single p.o. 4 mg/kg, n = 5.

In the case of `CC(=O)c1ccc(C(=O)Nc2cccc(NS(=O)(=O)c3ccccc3)c2)o1` [Compound E3, 5-acetyl-N-(3-(phenylsulfonamido)phenyl)furan-2-carboxamide], the “CLhep, rat liver homogenate” value in series [1] (calculated with 45 mg/g liver, 40 g liver/kg) is listed as 46.4 mL/min/kg. The share remaining (in general, the share of the starting amount still present when the sample was taken) at 1 h in series [1] (rat, liver homogenate, 60 min incubation, 37 °C, n=3) worked out at 69%. The “plasma concentration within 24 h” value in series [2] (after intragastric gavage administration) is reported as “less than 2 ng/mL”. The results for the mean residence time MRT in series [2] (setting [4]) and in series [2] (setting [6]) were 1.1 h and roughly 6.1 h, respectively. Further, the half-life – broadly, the time needed for the level to fall by half in the phase considered – in series [2] (setting [4]) is 1.9 h; in series [2] (setting [6]), roughly 4.9 h. In addition, the AUC(0-inf) (usually total exposure, with the tail of the curve extrapolated) in series [2] (setting [5]) worked out at 1120 ng·h/mL; in series [2] (setting [7]), 943 ng·h/mL. Further, the AUC(0-t) (commonly the area under the concentration-time curve up to a stated or last time point) worked out at 1120 ng·h/mL in series [2] (setting [5]) and 919 ng·h/mL in series [2] (setting [7]). Further, the Cmax turned out to be 2540 ng/mL in series [2] (male, SD, rat, plasma, iv, single i.v. 1 mg/kg, n = 5, read-out: C max); 443 nM in series [2] (male, SD, rat, plasma, po, p.o. 4 mg/kg, conversion of 170.3 ng/mL, read-out: Cmax in molar units); 170 ng/mL in series [2] (male, SD, rat, plasma, po, single p.o. 4 mg/kg, n = 5, read-out: C max). In addition, the bioavailability (as a rule, the share of a dose that reaches the circulation, judged against a reference dose that is usually intravenous) in series [2] (male, SD, rat, plasma, oral, p.o. 4 mg/kg vs i.v. 1 mg/kg, read-out: F (oral bioavailability)) was 21.1%. Moreover, the Tmax (usually the time from dosing to the highest level) in series [2] (setting [6]) was no more than 2 h. In addition, in series [2] (setting [7]), the CL/F (commonly the apparent clearance, not corrected for the fraction that reaches the circulation) was 70 mL/min/kg. In addition, the “V (V/F row; V for the i.v. group)” value in series [2] (single i.v. 1 mg/kg, n = 5) was found to be 2.5 L/kg. Further, the V/F in series [2] (single p.o. 4 mg/kg, n = 5) was determined as 30.1 L/kg. Besides, in series [3] (1 μM followed by washout with PBS), the “reversibility of UT-B inhibition” value is given as “reversible”. Moreover, the “UT-B-mediated urea influx into erythrocytes” value in series [3] (stopped-flow light scattering, rat erythrocytes) was “dose-dependently inhibit”. Besides, the UT-B-mediated urea efflux entry in series [3] (stopped-flow, erythrocytes preloaded with high urea, mixed with isotonic PBS) is on record as “inhibited UT-B-mediated urea efflux in a dose-dependent manner”.
